Experimental data as given in patent EP0417803A1, “[N-(gamma-glutamyl)glycyl] alanine derivatives” (SANDOZ LTD., priority 1989, dated 1991).

Test: Induction of endotoxin shock in the mouse
Conditions: in vivo, read-out: LD₅₀
Excerpt: The test method is essentially as described in GB 2'179'945 A and DE 37'30'905.

With `CCCCCCC(=O)N[C@H](CCC(=O)N[C@H](/C=C/CC(O)C(=O)OCCCC)C(=O)N[C@@H](C)C(=O)OCC)C(=O)OCc1ccccc1` (stereo partly drawn) [Example 1, {N-[N′-Heptanoyl-(R)-γ-glutamyl-(α-benzylester)]-(R)-α-[2-(RS)-hydroxypent-4-enoic acid butyl ester-5-yl]glycyl]-(S)-alanine ethyl ester] the LD50 was 12 mg/kg.
